In patent publication US8058306B2, “Phenyl pyrrole aminoguanidine derivatives” (Action Pharma A/S, priority 2006, dated 2011):

Tests used:
[1] = biological target: T1, human MC3 receptor (Homo sapiens, UniProt P41968); experiment: [125I]-NDP-MSH radio-ligand binding, MC3 (h) receptor (recombinant CHO cells); conditions: 60 min/37° C.
T1 construct: expressed in transfected cells; host or cells: CHO cells
Method: (§1) Determination of binding affinities for MC receptors was performed by [^125I]-[Nle4,D-Phe7]α-MSH ([^125I]-NDP-MSH) radio-ligand binding. In short, murine B16-F1 melanoma cells expressing MC1, but not other MC receptors, were used for binding affinity studies against the murine MC1 receptor (Siegrist et al.; 1988, J. Recept. Res., 8(1-4):323-43). For human MC3, MC4 and MC5 receptor affinities human recombinant CHO cells were used (Schioth et al. 1997, Neuropeptides 31:565-71, 1997). Cells were suspended in HEPES buffer and by use of microwell plates radio-ligands, as well as test compound, in the concentration range of 10^−10 to 10^−6 were added. After incubation at 37° C. (22° C. for the MC1 receptor assay) separation of bound and free [^125I]-NDP-MSH was done by multiple washings with buffer.
(§2) The results were expressed as a percent of control specific binding obtained in the presence of the test compounds. The IC50 values (concentration causing a half-maximal inhibition of control specific binding) and Hill coefficients (nH) were determined by non-linear regression analysis of the competition curves using Hill equation curve fitting. The inhibition constants (Ki) were calculated from the Cheng Prusoff equation (Ki=IC50/(1+(L/KD)), where L=concentration of radio-ligand in the assay, and KD=affinity of the radio-ligand for the receptor).

[2] = tested on: TNF-α; experiment: Inhibition of LPS-induced TNF-α production in rats; type: in vivo, rat; conditions: for Serum TNF-α measured 120 after initiation of LPS infusion: mean ± SE, N = 6; for reduction of serum level of TNF-α compared to vehicle treatment: 5.0 mg/kg dose level, 120 min after initiation of LPS infusion
Method: (§3) Experimental animals. Female Wistar rats (˜250 g) were obtained from the Charles River, Sulzfeld, Germany, and housed in a temperature- (22-24° C.) and moisture-controlled (40-70%) room with a 12 h light-dark cycle (light on from 6:00 A.M. to 6:00 P.M.). The rats were maintained on a standard rodent diet with 140 mmol/kg of sodium, 275 mmol/kg potassium and 23% protein (Altromin International, Lage, Germany) and had free access to water.
(§4) Animal preparation. […] After instrumentation, the animals were housed individually for 7-10 days until the day of the experiment.
(§5) Experimental protocol. Prior to the experiments all rats were adapted to the restraining cage used for the experiments by training. On the day of the experiment, the animal were transferred to a restraining cage, and an intravenous infusion of vehicle solution containing 150 mM glucose was started. The infusion rate was 0.5 ml/h throughout the experiment. After a short adaptation period, infusion of lipopolysaccharide (LPS) was started. LPS (E. coli serotype 0127 B8, L 3129, Sigma, St. Louis, USA) was given at a dose of 4 mg/kg body weight delivered as an i.v. infusion over 1 hour.
(§6) Arterial blood samples of 0.3 ml were taken 120 minutes after start of the LPS infusion.
(§7) In addition to LPS infusion all rats were treated with a bolus injection of:
(§8) Vehicle (0.5 mL 20% PEG200) or test compound in one of the following doses:
(§9) 0.1; 1.0; 5.0 mg/kg given intravenously 5 min prior to initiation of the LPS infusion.
(§10) Test compounds: Compound 1 of the invention (FIG. 1A, structure no. 1), compound 2 of the invention (FIG. 1D, structure no. 19) and compound 3 of the invention (FIG. 1I, structure no. 53).
(§11) Measurement of TNF-α and IL-10 in plasma: The blood samples were collected in a prechilled test tube with 0.5 mM EDTA, pH 7.4, and 20×10^6 IU/ml aprotinin. After centrifugation at 4° C., plasma samples were transferred to pre-chilled test tubes and stored at −20° C. for later measurements of TNF-α and IL-10. TNF-α and Il-10 in plasma were determined by an ELISA (Biotrak, Amersham, UK).
(§12) Statistical analyses. Results are presented as means±SE. A two-way ANOVA for repeated measures was used to test for differences between groups. In case of P<0.05, the differences between corresponding periods are evaluated by unpaired t-tests with Bonferroni's correction of the level of significance.

[3] = tested on: IL10; experiment: Inhibition of LPS-induced IL10 production in rats; type: in vivo, rat; conditions: for Serum IL10 measured 120 after initiation of LPS infusion: mean ± SE, N = 6; for reduction of serum level of IL10 compared to vehicle treatment: 5.0 mg/kg dose level; for dose level of maximal effect (IL10): doses tested 0.1, 1.0, 5.0 mg/kg i.v.
Method: as §3, §4, §5, §6, §7, §8, §9, §10, §11, §12

[4] = biological target: T2, murine MC1 receptor (Mus musculus, UniProt Q01727); experiment: [125I]-NDP-MSH radio-ligand binding, MC1 receptor (B16-F1 melanoma cells); conditions: 90 min/22° C.
T2 construct: murine B16-F1 melanoma cells expressing MC1, but not other MC receptors, were used; endogenous in cells; host or cells: murine B16-F1 melanoma cells
Method: as §1, §2

[5] = biological target: T3, human MC5 receptor (Homo sapiens, UniProt P33032); experiment: [125I]-NDP-MSH radio-ligand binding, MC5 (h) receptor (recombinant CHO cells); conditions: 60 min/37° C.
T3 construct: expressed in transfected cells; host or cells: CHO cells
Method: as §1, §2

[6] = 0.1 mg/kg i.v. 5 min prior to LPS
[7] = 1.0 mg/kg i.v. 5 min prior to LPS
[8] = 5.0 mg/kg i.v. 5 min prior to LPS
[9] = 120 min after initiation of LPS infusion

T2 sequence (Q01727 whole entry): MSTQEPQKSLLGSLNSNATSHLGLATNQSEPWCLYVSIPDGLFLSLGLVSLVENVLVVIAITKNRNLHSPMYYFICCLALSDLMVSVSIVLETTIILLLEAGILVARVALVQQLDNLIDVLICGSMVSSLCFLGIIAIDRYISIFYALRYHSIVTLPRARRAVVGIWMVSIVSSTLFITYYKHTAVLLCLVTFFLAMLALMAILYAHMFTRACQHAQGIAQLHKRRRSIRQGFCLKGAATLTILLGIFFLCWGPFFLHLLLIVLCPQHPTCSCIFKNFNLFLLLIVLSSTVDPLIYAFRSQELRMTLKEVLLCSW
T1 sequence (P41968 whole entry): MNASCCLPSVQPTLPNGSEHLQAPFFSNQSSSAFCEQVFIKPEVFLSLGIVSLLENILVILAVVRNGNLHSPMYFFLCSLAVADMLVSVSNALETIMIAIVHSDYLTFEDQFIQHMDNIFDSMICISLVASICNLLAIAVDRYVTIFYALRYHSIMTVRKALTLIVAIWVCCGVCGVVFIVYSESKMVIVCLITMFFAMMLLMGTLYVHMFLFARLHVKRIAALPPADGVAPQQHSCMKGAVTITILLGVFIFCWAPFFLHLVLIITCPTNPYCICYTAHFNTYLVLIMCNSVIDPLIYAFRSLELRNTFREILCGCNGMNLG
T3 sequence (P33032 whole entry): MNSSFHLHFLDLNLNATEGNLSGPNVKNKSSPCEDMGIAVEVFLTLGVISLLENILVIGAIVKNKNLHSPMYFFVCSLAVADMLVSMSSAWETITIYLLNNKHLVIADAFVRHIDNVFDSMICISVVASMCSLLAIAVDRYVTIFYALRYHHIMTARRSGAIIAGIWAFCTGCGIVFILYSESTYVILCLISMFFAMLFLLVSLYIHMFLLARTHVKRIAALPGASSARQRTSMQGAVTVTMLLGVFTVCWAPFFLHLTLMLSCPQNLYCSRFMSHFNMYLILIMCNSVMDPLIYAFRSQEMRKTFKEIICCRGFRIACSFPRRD

| Ki [1] [nM] | Ki [4] [nM] | Ki [5] [nM] | Compound | Serum TNF-α measured 120 after initiation of LPS infusion [2, 6] [pg/mL] | Serum TNF-α measured 120 after initiation of LPS infusion [2, 7] [pg/mL] | Serum TNF-α measured 120 after initiation of LPS infusion [2, 8] [pg/mL] | dose level of maximal anti-inflammatory effect (TNF-α) ([2]; doses tested 0.1, 1.0, 5.0 mg/kg i.v.) [mg/kg] | Serum IL10 measured 120 after initiation of LPS infusion [3, 6] [pg/mL] | Serum IL10 measured 120 after initiation of LPS infusion [3, 7] [pg/mL] | reduction of serum level of IL10 compared to vehicle treatment [3, 9] [%] | Serum IL10 measured 120 after initiation of LPS infusion [3, 8] [pg/mL] | dose level of maximal effect (IL10) [3] [mg/kg] | reduction of serum level of TNF-α compared to vehicle treatment [2] [%] | reduction of IL10 response compared to vehicle treatment ([3]; 1.0 mg/kg dose level, 120 min after initiation of LPS infusion) [%] |
| --- | --- | --- | --- | --- | --- | --- | --- | --- | --- | --- | --- | --- | --- | --- |
| > 1000 | 360 | > 1000 | N=C(N)NN=CC=Cc1cccn1-c1ccccc1[N+](=O)[O-] [Compound 2, [1-(2-nitrophenyl)-1H-pyrrol-2-yl-allylideneamino]guanidinium acetate] | 5964 ± 957 | 6130 ± 601 | 8380 ± 2694 | 0.1 | 7606 ± 1313 | 4770 ± 1387 | ~46 | 4053 ± 894 | 5.0 | – | – |
| 630 | 2.6 | > 1000 | N=C(N)NN=CC=Cc1cccn1-c1ccccc1Br [Compound 3, [1-(2-bromophenyl)-1H-pyrrol-2-yl-allylideneamino]guanidinium acetate] | 10310 ± 2728 | 5250 ± 1113 | 5020 ± 862 | – | 5658 ± 1119 | 3452 ± 1091 | – | 3856 ± 973 | 1.0 | ~60 | ~55 |
| > 1000 | 88 | > 1000 | N=C(N)NN=CC=Cc1cccn1-c1ccc(Cl)cc1 [Compound 1, [1-(4-chlorophenyl)-1H-pyrrol-2-yl-allylideneamino]guanidinium acetate] | 10830 ± 4031 | 6230 ± 1786 | 5800 ± 703 | – | 8485 ± 960 | 5978 ± 890 | ~25 | 5651 ± 325 | 5.0 | ~60 | – |
